Results published in US10857234B2, “Carbonic anhydrase IX inhibitor conjugates and uses thereof” (Endocyte, Inc., priority 2016, dated 2020).

How the values were obtained:
CA IX [1] = target: T1, CA IX (Homo sapiens, UniProt Q16790); experiment: CAIX competitive binding assay
T1 construct: endogenous in cells; host or cells: HT29 cells under hypoxia (1.3% O2)
Protocol: (§1) HT29 cells were seeded into 24-well plates at 0.5×10^6 cells per well in McCoy's 5A medium containing 10% fetal bovine serum (FBS) and were allowed to attach for 48 h in an incubator with an atmosphere of 5% CO2/95% air and 37° C. The evening prior to the binding assay, cells were placed in a Hypoxylab workstation set at 10 mm Hg (1.3% O2), 5% CO2, and 37° C. (hypoxic conditions). A single concentration of ^125I-CAIX radioligand was used (2 nM). Serial dilutions of competitors (EC2674 and EC2711) were prepared in McCoy's 5A medium/10% FBS. Binding solutions (500 μL) containing the radioligand and competitor dilutions were placed on the cells, and cells were incubated in the Hypoxylab workstation for 2 h under hypoxic conditions. Cells were then removed from the Hypoxylab and were washed 3 times with ice-cold PBS, pH 7.4. Cells were solubilized with 500 μL of 0.1N NaOH/0.1% Triton X-100. Cell lysates (450 μL) were counted in a Wizard2 gamma counter (Perkin Elmer). CPM values for each competitor concentration were normalized to values for radioligand binding in the absence of competitor.

CA IX [2] = target: T1, CA IX; experiment: CA IX competitive binding assay (pH 6.8 vs. 7.4 buffers + Zn2+); settings: HT29 cells, 2 nM 125I-EC2674, 2 hr, 37° C.
Protocol: as §1, with “CPM values for each competitor concentration were normalized to values for radioligand binding in the absence of competitor.” left out
Following the procedure for the previous competitive binding assay (Example 22), the CAIX Competitive Binding Assay (pH 6.8 vs. 7.4 Buffers+Zn^2+) was carried out with the following modifications from Example 22. […] Only the homologous cold-iodine labeled CAIX ligand, EC2674, was assessed for competitive binding.

IC50 (CA IX [1]; HT29 cells, 2 nM 125I-EC2674, 2 hr, 37° C., 1.3% O2, McCoy's Medium+10% FBS, read-out: IC50) | IC50 (CA IX [2]; 1.3% O2, pH 6.8 buffer (20 mM BES, 140 mM NaCl, 1 mM ZnSO4)) | IC50 (CA IX [2]; 1.3% O2, pH 7.4 buffer (20 mM Tris, 140 mM NaCl, 1 mM ZnSO4)) | Compound | IC50 (CA IX [1])
852 nM | 62.5 nM | 66.5 nM | NS(=O)(=O)c1ccc(NC(=O)CN(CCN(CC(=O)Nc2ccc(S(N)(=O)=O)cc2)CC(=O)N[C@@H](CNC(=O)CCc2cc(I)c(O)c(I)c2)C(=O)O)CC(=O)O)cc1 [EC2674] | –
– | – | – | CCCC(=O)OCN(C(=O)[C@@H](NC(=O)[C@H]1CCCCN1C)C(C)CC)[C@H](C[C@@H](OC(C)=O)c1nc(C(=O)N[C@@H](Cc2ccc(O)cc2)C[C@H](C)C(=O)NNC(=O)OCCSSC[C@H](NC(=O)[C@H](CC(=O)O)NC(=O)[C@H](CC(=O)O)NC(=O)[C@H](CC(=O)O)NC(=O)CN(CCN(CC(=O)O)CC(=O)Nc2ccc(S(N)(=O)=O)cc2)CC(=O)Nc2ccc(S(N)(=O)=O)cc2)C(=O)O)cs1)C(C)C (stereo partly shown) [EC2711] | 9 nM
